Experimental data from patent publication US20170106017A1 (priority 2014, published 2017).
Read-outs that look alike come from different tables or passages of the source.

Experiments:
IL-18 [1] = conditions: 1-2 mg/kg/infusion, 6 months; for plasma level of IL-18 after treatment: responders
Description: Thirty two patients diagnosed with ALS were treated with chlorite over the course of 6 months. The initial plasma concentration of IL-18 in each patient was recorded and set as the baseline level. Patients were treated with 1-2 mg/kg/infusion chlorite over the course of 6 months. ALSFRS-R scores and IL-18 levels were recorded at different time points during the treatment and compared with the initial concentration.

PD patients = conditions: 1-2 mg/kg/infusion, 6 months
ALS patients [2] = conditions: for ALSFRS-R level over the course of treatment: 1-2 mg/kg/infusion, 6 months
Description: Patients diagnosed with ALS are treated with chlorite over the course of 6 months. Based upon the initial concentration of IL-18 at the baseline or its baseline level, patients are sorted into two groups. Patients with baseline level of IL-18 higher than 60 pg/mL are assigned in IL-18-high group and patients with baseline level of IL-18 lower than 60 pg/mL are assigned in IL-18-low group. Both groups are treated with 1-2 mg/kg/infusion chlorite over the course of 6 months. ALSFRS-R scores and IL-18 levels are recorded at different time points during the treatment and compared between IL-18-high and IL-18-low groups.

IL-18 [3] = system: IL-18
Description: A randomized, double-blind, placebo-controlled study was administered over six cycles. Patients were treated with chlorite 2 mg/kg/infusion, or placebo. Patients were scheduled to receive a total of 20 infusions over 6 cycles during a 25-week (or 6-month) treatment period. […] Levels of biomarkers can be measured with techniques known in the art, e.g., ELISA or flow cytometry.

AD patients = conditions: 1-2 mg/kg/infusion, 6 months
[4] = system: CD16 expression on CD16 bright monocytes; conditions: 0.2-3.2 mg/kg single dose, 24 hours after dosing
ALS patients [5] = conditions: for mean decrease in ALSFRS-R score: 3-month off-drug follow-up; for estimated ALSFRS-R slope: patients less than the baseline median wr-CRP; for estimated ALSFRS-R slope decline: patients with baseline wrCRP at or above the median
ALS patients [6] = conditions: 1-2 mg/kg/infusion, at least 6 months
LPS = conditions: for responders with decreased LPS: at least 6 months of treatment
Description: (§1) A randomized, double-blind, placebo-controlled study was administered over six cycles. Patients were treated with chlorite 2 mg/kg/infusion, or placebo. […] Samples from both responders and non-responders were collected and tested at different time points, e.g., at baseline (pre-dose Cycle 1, Week 1), 1-month, 2-month, 3-month, 4-month, 5-month and 6-month. ALSFRS-R scores and biomarkers levels were measured in responders and non-responders at selected time points and compared to the placebo group.

[7] = system: G93A SOD1 congenic strain of mice; conditions: preliminary studies (McGrath et al., 2010); cited from earlier work
ALS patients [8] = conditions: for decline in vital capacity: at least 6 months of treatment
Description: as §1

For sodium chlorite [NP001], the number of non-responders (IL-18 [1]; 32 ALS patients) was 22, the number of responders (IL-18 [1]; 32 ALS patients) was 10 and the “plasma level of IL-18 after treatment” value (IL-18 [1]) was “decreased”. For the same substance, the “plasma level of IL-18 after treatment” value (IL-18 [1]; listed as chlorite/NP001) was “capable of lowering IL-18 plasma level”, the “treatment of Parkinson's patients” value (PD patients) was “capable of treating Parkinson's patients” and the “ALSFRS-R level over the course of treatment” value (ALS patients [2]; IL-18-high group (baseline IL-18 higher than 60 pg/mL)) was “stabilizes”. For the same substance, the “decrease in IL-18 baseline level” value (ALS patients [2]; IL-18-high vs IL-18-low group) was “can only be observed in IL-18-high group”, the “ALSFRS-R level over the course of treatment” value (ALS patients [2]; IL-18-low group (baseline IL-18 lower than 60 pg/mL)) was “no stabilization” and the “responders with decreased IL-18” value (IL-18 [3]; high dose responders, at least 6 months of treatment) was 80%. The “responders with decrease in IL-18” value (IL-18 [3]; low dose group responders (8), at least 6 months of treatment) was 1 patient, the “change of plasma IL-18 level from baseline” value (IL-18 [3]; non-responders, after 25 weeks) was “increase” and the “change of plasma IL-18 level from baseline” value (IL-18 [3]; responders, after 25 weeks of treatment) was “decrease”. The “treatment of AD patients” value (AD patients) was “capable of treating AD patients”, the “level of CD16 expression on the CD16 bright subset of monocytes vs placebo” value [4] was “Dose-dependent changes” and the “effect on ALSFRS-R slope and change from baseline compared to placebo” value (ALS patients [5]; 1 mg/kg) was “minimal or no effect dose”. The “mean decrease in ALSFRS-R score” value (ALS patients [5]; 1 mg/kg) was −3.7, the “estimated ALSFRS-R slope” value (ALS patients [5]; 1 mg/kg) was −1.38 and the “estimated ALSFRS-R slope decline” value (ALS patients [5]; 1 mg/kg) was −0.73 points per month. The “mean decrease in ALSFRS-R score” value (ALS patients [5]; 2 mg/kg) was −3.3, the ALSFRS-R mean slope (ALS patients [5]; 2 mg/kg, 6 months of treatment (Weeks 1 through 25)) was −0.77 points per month and the “percent change in ALSFRS-R mean slope compared to placebo” value (ALS patients [5]; 2 mg/kg, 6 months, concurrent placebo) was 13%. For the same substance, the “improvement in rate of progression compared to placebo” value (ALS patients [5]; 2 mg/kg, baseline wrCRP at or above the median, p=0.2) was 41%, the “estimated ALSFRS-R slope” value (ALS patients [5]; 2 mg/kg) was −0.87 and the “estimated ALSFRS-R slope decline” value (ALS patients [5]; 2 mg/kg) was −0.55 points per month. The “slowing of change in ALSFRS-R from baseline” value (ALS patients [5]; 2 mg/kg, with addition of matched historical placebo control patients) was 21%, the “improvement in the rate of progression compared to combined placebo controls” value (ALS patients [5]; 2 mg/kg, with matched historical placebo controls, p=0.16) was 19% and the “slowing of change in ALSFRS-R from baseline” value (ALS patients [5]; 2 mg/kg, without addition of matched historical placebo control patients) was 17%. The “slower functional decline (residual) in mean change in ALSFRS-R compared to placebo” value (ALS patients [5]; high dose (2 mg/kg), off-drug follow-up) was 11%, the “relationship between mean ALSFRS-R levels and mean baseline levels of biomarkers” value (ALS patients [6]) was “linear relationship with a positive slope” and the “responders with decreased LPS” value (LPS; high dose responders) was 70%. The “responders with decreased LPS” value (LPS; low dose group responders (8)) was “half”, the “LPS level at week 24” value (LPS; non-responders, baseline about 0.35) was “about 0.2” and the “decrease of LPS level from baseline” value (LPS; non-responders, week 24) was “about 40%”. For the same substance, the “LPS level after treatment” value (LPS; responders, week 24, baseline about 0.3) was “undetectable level”, the “decrease of LPS level from baseline” value (LPS; responders, week 24, calculated with minimum detection level about 0.075) was “about 75%” and the “survival, treated compared to control mice” value [7] was “significant survival improvement”. The “disease progression of ALS patients” value (ALS patients [8]; 2 mg/kg, patients with high plasma level of IL-18, IL-6, INF-g, and CPR) was “capable of slowing the disease progression”, the “percentage of patients who did not progress (responders)” value (ALS patients [8]; high dose group (2 mg/kg), 6-month treatment period) was 27% and the “percentage of non-progressing patients relative to placebo group” value (ALS patients [8]; high dose group vs placebo (11%)) was “approximately 2.5 times”. The “decline in vital capacity” value (ALS patients [8]; non-responders, 1 mg) was −17.7+/−17.9, the “decline in vital capacity” value (ALS patients [8]; non-responders, 2 mg) was −14.5+/−13.2 and the “ALSFRS-R score over the 6-month treatment period” value (ALS patients [8]; responders) was “remained stable”. For the same substance, the “decline in vital capacity” value (ALS patients [8]; responders, 1 mg) was −8.95+/−10.1 and the “decline in vital capacity” value (ALS patients [8]; responders, 2 mg) was −3.76+/−5.7.
